Results as given in publication PMC3472523 (Journal of the American Chemical Society, 2012).
Residues, ends and D or L forms follow the SMILES beside them.

How the values were obtained:
[1] = Far-UV CD measurement of percent helicity; assay type: physicochemical; conditions: for Percent helicity: 50 μM in ACN/H2O (1:1), calculated from [θ]222
Stability in mouse serum = assay type: in vitro ADME; conditions: for half-life: mouse
[2] = system: Mcl-1-overexpressing U937 cells; conditions: for Activity in cell viability assay: U937 cells
Mcl-1 [3] = target: T1, Mcl-1 (Mus musculus, UniProt P97287); test: Competitive fluorescence polarization; assay type: binding; conditions: competitive FP assay
Bcl-2 = conditions: cited from earlier work
Bcl-xL [4] = target: T2, Bcl-xL (Homo sapiens, UniProt Q07817); conditions: cited from earlier work
Mcl-1 [5] = target: T1, Mcl-1; conditions: cited from earlier work
Mcl-1 [6] = target: T1, Mcl-1; test: Direct FP binding assay of fluorescein-conjugated peptides; conditions: read-out: Kd toward Mcl-1, N-terminal fluorescein-conjugated peptides
Bcl-xL [7] = target: T2, Bcl-xL; test: as above

T1 sequence (P97287 whole entry): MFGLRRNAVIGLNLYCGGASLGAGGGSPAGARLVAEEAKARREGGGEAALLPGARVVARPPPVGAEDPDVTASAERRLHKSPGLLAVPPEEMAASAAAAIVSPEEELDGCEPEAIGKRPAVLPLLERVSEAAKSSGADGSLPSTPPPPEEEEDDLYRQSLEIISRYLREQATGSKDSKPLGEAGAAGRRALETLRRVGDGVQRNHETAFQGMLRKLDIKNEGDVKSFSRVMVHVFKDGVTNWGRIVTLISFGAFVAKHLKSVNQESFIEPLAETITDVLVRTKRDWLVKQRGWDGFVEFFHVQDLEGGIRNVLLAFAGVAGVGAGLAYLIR
T2 sequence (Q07817 whole entry, species assumed): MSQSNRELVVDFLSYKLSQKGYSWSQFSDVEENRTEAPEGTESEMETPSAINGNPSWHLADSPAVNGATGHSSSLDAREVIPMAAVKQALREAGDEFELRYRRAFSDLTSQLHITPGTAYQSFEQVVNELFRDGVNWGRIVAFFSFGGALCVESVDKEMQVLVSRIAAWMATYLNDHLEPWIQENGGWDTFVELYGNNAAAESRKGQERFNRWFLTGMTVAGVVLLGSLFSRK

For `CC[C@H](C)[C@@H]1NC(=O)[C@H](C)NC(=O)[C@H](CCCNC(=N)N)NC(=O)[C@H](CC(C)C)NC(=O)[C@H](NC(=O)[C@H](C)NC(=O)[C@H](C)NC(C)=O)CSCc2ccc(cc2)-c2ccc(cc2)CSC[C@@H](C(=O)N[C@H](C(=O)N[C@@H](CC(N)=O)C(=O)N[C@@H](CC(C)C)C(=O)N[C@@H](C)C(=O)N[C@@H](CCC(N)=O)C(=O)N[C@@H](C)C(=O)N[C@@H](CC(C)C)C(=O)N[C@@H](CC(C)C)C(=O)N[C@@H](CC(N)=O)C(N)=O)C(C)C)NC(=O)[C@H](CC(=O)O)NC(=O)CNC1=O` [compound 5] (HELM PEPTIDE1{[ac].A.A.[dC].L.R.A.I.G.D.C.V.N.L.A.Q.A.L.L.N.[am]}|CHEM1{[c1cc(-c2ccc(C[*:2])cc2)ccc1C[*:1]]}$PEPTIDE1,CHEM1,4:R3-1:R1|PEPTIDE1,CHEM1,11:R3-1:R2$$$V2.0), the “Increase in helicity, 5 compared to 2” value [1] was “more than twofold”, the Percent helicity [1] was 66% and the “Increase in stability in mouse serum relative to linear Noxa peptide” value (Stability in mouse serum) was 180 fold. It also gave a half-life (Stability in mouse serum) of 31.6 ± 2.2 h.
In the case of `CC[C@H](C)[C@@H]1NC(=O)[C@H](C)NC(=O)[C@H](CCCNC(=N)N)NC(=O)[C@H](CC(C)C)NC(=O)[C@H](NC(=O)[C@H](C)N(C)C(=O)[C@H](C)N(C)C(=O)OC)CSCc2ccc(cc2)-c2ccc(cc2)CSC[C@@H](C(=O)N[C@H](C(=O)N[C@@H](CC(N)=O)C(=O)N[C@@H](CC(C)C)C(=O)N[C@@H](C)C(=O)N[C@@H](CCC(N)=O)C(=O)N[C@@H](C)C(=O)N[C@@H](CC(C)C)C(=O)N[C@@H](CC(C)C)C(=O)N[C@@H](CC(N)=O)C(N)=O)C(C)C)NC(=O)[C@H](CC(=O)O)NC(=O)CNC1=O` [compound 8] (HELM PEPTIDE1{[COC(=O)[*:2]].[meA].[meA].[dC].L.R.A.I.G.D.C.V.N.L.A.Q.A.L.L.N.[am]}|CHEM1{[c1cc(-c2ccc(C[*:2])cc2)ccc1C[*:1]]}$PEPTIDE1,CHEM1,4:R3-1:R1|PEPTIDE1,CHEM1,11:R3-1:R2$$$V2.0), the Percent helicity [1] is reported as 52%, the “Increase in stability in mouse serum relative to linear Noxa peptide” value (Stability in mouse serum) is reported as 121 fold and the half-life (Stability in mouse serum) is reported as 21.2 ± 2.6 h. The EC50 ([2]; 48 h) was 13.4 µM.
In the case of `CC[C@H](C)[C@@H]1NC(=O)[C@H](CCCNC(=N)N)NC(=O)[C@H](CCCNC(=N)N)NC(=O)[C@H](CC(C)C)NC(=O)[C@H](NC(=O)[C@H](C)NC(=O)[C@H](C)NC(C)=O)CSCc2ccc(cc2)-c2ccc(cc2)CSC[C@@H](C(=O)N[C@H](C(=O)N[C@@H](CC(N)=O)C(=O)N[C@@H](CC(C)C)C(=O)N[C@@H](CCCNC(=N)N)C(=O)N[C@@H](CCC(N)=O)C(=O)N[C@@H](CCCCN)C(=O)N[C@@H](CC(C)C)C(=O)N[C@@H](CC(C)C)C(=O)N[C@@H](CC(N)=O)C(N)=O)C(C)C)NC(=O)[C@H](CC(=O)O)NC(=O)CNC1=O` [compound 2], the “Increase in inhibitory activity compared to parent Noxa peptide” value (Mcl-1 [3]) is reported as 12 fold and the “Activity in cell viability assay” value ([2]; 20 μM peptide, 48 hours) is reported as “no activity”.
For `CN(C)CC[C@H](CSc1ccccc1)Nc1ccc(S(=O)(=O)NC(=O)c2ccc(N3CCN(Cc4ccccc4-c4ccc(Cl)cc4)CC3)cc2)cc1[N+](=O)[O-]` [ABT-737], the “Binding affinity to Bcl-2” value (Bcl-2) is given as “subnanomolar affinity”, the “Binding affinity to Bcl-xL” value (Bcl-xL [4]) is given as “subnanomolar affinity” and the “Binding to Mcl-1” value (Mcl-1 [5]) is given as “poorly”.
Molecule `CC[C@H](C)[C@H](NC(=O)[C@H](CCCNC(=N)N)NC(=O)[C@H](CCCNC(=N)N)NC(=O)[C@H](CC(C)C)NC(=O)[C@H](CCC(N)=O)NC(=O)[C@H](C)NC(=O)[C@H](C)NC(C)=O)C(=O)NCC(=O)N[C@@H](CC(=O)O)C(=O)N[C@@H](CCCCN)C(=O)N[C@H](C(=O)N[C@@H](CC(N)=O)C(=O)N[C@@H](CC(C)C)C(=O)N[C@@H](CCCNC(=N)N)C(=O)N[C@@H](CCC(N)=O)C(=O)N[C@@H](CCCCN)C(=O)N[C@@H](CC(C)C)C(=O)N[C@@H](CC(C)C)C(=O)N[C@@H](CC(N)=O)C(N)=O)C(C)C` [Noxa, reference compound] has a Kd (Mcl-1 [6]) of 0.0067 ± 0.001 µM, a Kd (Bcl-xL [7]) of over 1 µM and a half-life (Stability in mouse serum) of 0.175 ± 0.0383 h. The Cell viability ([2]; ATP assay, U937 cells in RPMI1640 with 5% FBS, 20 μM peptide, 48 hours) was 97.6±0.9% and the “Activity in cell viability assay” value ([2]; 20 μM peptide, 48 hours) was “no activity”.
In the case of `CC[C@H](C)[C@@H]1NC(=O)[C@H](CCCNC(=N)N)NC(=O)[C@H](CCCNC(=N)N)NC(=O)[C@H](CC(C)C)NC(=O)[C@@H](NC(=O)[C@H](C)NC(=O)[C@H](C)NC(C)=O)CSCc2ccc(cc2)-c2ccc(cc2)CSC[C@@H](C(=O)N[C@H](C(=O)N[C@@H](CC(N)=O)C(=O)N[C@@H](CC(C)C)C(=O)N[C@@H](CCCNC(=N)N)C(=O)N[C@@H](CCC(N)=O)C(=O)N[C@@H](CCCCN)C(=O)N[C@@H](CC(C)C)C(=O)N[C@@H](CC(C)C)C(=O)N[C@@H](CC(N)=O)C(N)=O)C(C)C)NC(=O)[C@H](CC(=O)O)NC(=O)CNC1=O` [compound 1], the “Increase in inhibitory activity compared to parent Noxa peptide” value (Mcl-1 [3]) is reported as 65 fold and the “Activity in cell viability assay” value ([2]; 20 μM peptide, 48 hours) is reported as “no activity”.
